Columns and labels:
[1] = tested on: cartilage (IVD, knee / synovial joints); test: Whole body autoradiography (WBA) of radiolabeled cartilage homing peptides (Example 21); type: in vivo, Female Harlan athymic nude mice
Description: This example illustrates peptide homing to cartilage mice 5 minutes to 48 hours after administration of a radiolabeled peptide. Signal from the radiolabeled peptides was found in all types of cartilage at each time point examined. Each peptide was radiolabeled by methylating […] as described in EXAMPLE 2. As such, the peptide may contain methyl or dimethyl lysines and a methylated or dimethylated amino terminus. A dose of 100 nmol radiolabeled peptide was administered via tail vein injection in Female Harlan athymic nude mice, weighing 20-25 g. The experiment was done in duplicate (n=2 animals per group). In some animals, kidneys were ligated to prevent renal filtration of the radiolabeled peptides and extend plasma half-life. Each radiolabeled peptide was allowed to freely circulate within the animal for the described time period before the animals were euthanized and sectioned.
Whole body autoradiography (WBA) sagittal sectioning was performed as follows. […] Sections were allowed to desiccate in a freezer prior to imaging.
For the autoradiography imaging, tape mounted thin sections were freeze dried and radioactive samples were exposed to phophoimager plates for 7 days.

pepsin = pepsin (Homo sapiens, UniProt P0DJD8); test: Peptide resistance to pepsin digestion / simulated gastric fluid (RP-HPLC); type: in vitro ADME; conditions: 12.5 ug peptide, 20 ug pepsin, SGF pH 1.05, 30 minutes at 37.5 C
Description: SEQ ID NO: 24 peptide and SEQ ID NO: 111 peptide were suspended in 500 μl of ddH2O at a stock concentration of 2 mg/ml. Reactions were prepared with 12.5 μg peptide and 20 μg pepsin in simulated gastric fluid (pH 1.05) and incubated for 30 minutes at 37.5° C. Reactions were quenched with a final concentration of 100 mM Tris base and 10 mM dithiothreitol (DTT). Reversed phase HPLC (RP-HPLC) was run on samples using an Agilent 1260 HPLC equipped with a C-18 Poroshell 120B column. Sample were analyzed by a gradient method with a mobile phase of Solvent A (water with 0.1% TFA) and Solvent B (acetonitrile with 0.1% TFA). Solvent B was ramped up from 5%-45% of the mobile phase over a period of 10 minutes. Peptides were detected at an absorbance of 214 nm and 280 nm.

[2] = Peptide resistance to reducing agents (10 mM DTT, RP-HPLC); type: physicochemical; conditions: 10 mM DTT in PBS, room temperature, 30 minutes
Description: Several peptides were suspended in 500 μl of ddH2O to a stock concentration of 2 mg/ml. Reactions were prepared by adding 12.5 μg peptide from the stock solution to a 10 mM solution of DTT in PBS and allowed to incubate at room temperature for 30 minutes. RP-HPLC was run on samples using an Agilent 1260 HPLC equipped with a C-18 Poroshell 120B column. Samples were analyzed by a gradient method with a mobile phase of Solvent A (water with 0.1% TFA) and Solvent B (acetonitrile with 0.1% TFA). Solvent B was ramped up from 5%-45% of the mobile phase over a period of 10 minutes.
Peptides were fractionated by HPLC and without any further sample prep, 5 μl of the sample was injected into the mass spectrometer at 1 mg/ml using a CTCPAL® autosampler. Alternatively, if peptides were provided as a lyophilized powder, the sample was dissolved in 100% water to a concentration of 1 mg/ml a Millipore Ziptip C18® column was used to desalt the peptides prior to injection for ES-MS. The mass spectrometer was calibrated using 5 pmol of mixture of five standard peptides to achieve a high accuracy of mass determination with less than a 10 ppm error. Confirmation of peptide disulfide bond formation was achieved by analyzing the m/z isotopic distribution and the exact charge. All peptides tested are shown under reducing and non-reducing conditions.

[3] = Intravenous and oral administration of radiolabeled peptide: plasma, urine, feces; type: in vivo, female Harlan athymic nude mice
Description: This example describes intravenous and oral administration of peptides of this disclosure, including transit of the intact peptide through the GI tract and to the feces after oral administration. A radiolabeled peptide of SEQ ID NO: 24 was administered intravenously or orally to female Harlan athymic nude mice, 6-8 weeks of age. Radiolabeled peptides of SEQ ID NO: 24 was administered intravenously (IV) at a dose of 4.8 μCi/20 nmol. Radiolabeled peptide of SEQ ID NO: 24 was administered orally (PO) at a dose of 24 μCi/100 nmol. Mice were euthanized at various time points by CO2 asphyxiation and biological fluids were collected, including blood, urine, and feces. Urine was collected be abdominal palpitation immediately before CO2 asphyxiation. Blood was collected by cardiac puncture immediately after CO2 asphyxiation and centrifuged to separate plasma. Feces was collected either before or after CO2 asphyxiation by palpitation of the colon. Samples were analyzed by HPLC to quantify the concentration or dose of intact peptide recovered in plasma, urine, and feces. For HPLC analysis, urine samples were first diluted at a 1:20 ratio in water and plasma samples were diluted at a 1:5 ratio in water. Feces samples were dissolved in Tris buffer, centrifuged to remove the insoluble fraction, and supernatants were diluted at a 1:1 ratio in water.
The delivered dose of ^14C was 4.8 for intravenous administration and 24 μCi for oral administration. Time points examined included 0.08, 0.5, 1, 3, 8, 24, 48 hours and three mice were examined per time point. […] The delivered dose of ^14C was 4.8 for intravenous administration and 24 μCi for oral administration. Time points examined included 0.08, 0.5, 1, 3, 8, 24, 48 hours and three mice were examined per time point. […] The delivered dose of ^14C was 24 μCi for oral administration. Time points examined included 0.5, 1, and 3 hours. […] The intact peptide was eluted near 6 minutes, whereas cleaved fragments—such as the N-terminal Gly residue—were eluted near 1 minute.
(§1) The delivered dose of ^14C was 4.8 μCi for intravenous administration and 24 μCi for oral administration. Time points examined included 0.08, 0.5, 1, 3, 8, 24, 48 hours and three mice were examined per time point. […] The delivered dose of ^14C was 24 μCi for oral administration. Time points examined included 0.5, 1, 3, 8, 24, and 48 hours.
as §1, with “included 3” for “included 0.5, 1, 3, 8, 24,”, “and 8” for “and 48”

cartilage = conditions: 3 hours, ligated kidneys
Description: This example describes a dosing scheme for administering knottin peptides to mice in conjunction with kidney ligation. Different dosages of the peptides were administered to Female Harlan athymic nude mice, weighing 20 g-25 g, via tail vein injection (n=2 mice per knottin). The experiment was done in duplicates. The kidneys were ligated to prevent renal filtration of the peptides. Each peptide was radiolabeled by methylating lysines and the N-terminus, so the actual binding agent may contain methyl or dimethyl lysine(s) and a methylated or dimethylated amino terminus.
A target dosage of 50-100 nmol of each peptide carrying 10-25 uCi of ^14C was administered to Female Harlan athymic nude mice while anesthetized. Each peptide was allowed to freely circulate within the animal before the animals were euthanized and sectioned.
This example illustrates peptide homing to cartilage of mice with kidneys that were ligated prior to peptide administration. At the end of the dosing period in EXAMPLE 3, mice were frozen in a hexane/dry ice bath and then frozen in a block of carboxymethylcellulose. […] Thin, frozen sections of animal including imaging of tissues such as brain, tumor, liver, kidney, lung, heart, spleen, pancreas, muscle, adipose, gall bladder, upper gastrointestinal tract, lower gastrointestinal tract, bone, bone marrow, reproductive track, eye, cartilage, stomach, skin, spinal cord, bladder, salivary gland, and other types of tissues were obtained with a microtome, allowed to desiccate in a freezer, and exposed to phosphoimager plates for about ten days.
These plates were developed, and the signal (densitometry) from each organ was normalized to the signal found in the heart blood of each animal. A signal in tissue darker than the signal expected from blood in that tissue indicates peptide accumulation in a region, tissue, structure or cell. For instance, the cartilage is avascular and contains minute amounts of blood. A ratio of at least 170% signal in the cartilage versus heart ventricle was chosen as a reference level for significant targeting to cartilage, which also correlated with clear accumulation in cartilaginous tissues in the images of the slices.
The SEQ ID NO: 24 peptide was radiolabeled as in Example 3 and 100 nmol of peptide was injected into a mouse with intact kidneys. FIG. 5 illustrates the retention of and the tissue distribution in the cartilage of a peptide of SEQ ID NO: 24, 24 hours after administration.

pepsin, trypsin = test: HPLC after exposure to oxidative, reductive, acidic conditions and proteinases (FIG. 72); type: in vitro ADME; conditions: pH 1 / SGF pH 1.05, 10 mM DTT, 500 U pepsin, 50 U trypsin
Description: FIG. 72 illustrates HPLC chromatograms of peptides of SEQ ID NO: 111 and SEQ ID NO: 434 after exposure to a range of conditions including oxidative, reductive, and acidic conditions as well as after exposure to proteinases. FIG. 72A illustrates the HPLC trace of a peptide of SEQ ID NO: 111 under reducing and acidic conditions. FIG. 72B illustrates the HPLC trace of a peptide of SEQ ID NO: 111 under various combinations of reducing agents and proteases including 10 mM DTT in 500 U pepsin, 500 U pepsin, 10 mM DTT in 50 U trypsin, and 50 U trypsin. FIG. 72C illustrates the HPLC trace of a peptide of SEQ ID NO: 434 under various protease conditions including in 500 U pepsin, in 50 U trypsin, non-reducing (NR, oxidized conditions) in simulated gastric fluid (SGF) at pH 1.05, and NR.
FIG. 72 illustrates HPLC chromatograms of peptides of SEQ ID NO: 111 and SEQ ID NO: 434 after exposure to a range of conditions including oxidative, reductive, and acidic conditions as well as after exposure to proteinases. The peptide of SEQ ID NO: 434 is a linearized version of the knottin peptide of SEQ ID NO: 111. The peptide of SEQ ID NO: 434 has the same amino acid sequence as the knottin peptide of SEQ ID NO: 111, but with all cysteines mutated to serines. FIG. 72A illustrates the HPLC trace of a peptide of SEQ ID NO: 111 under reducing and acidic conditions. […]

[4] = 3 hours after 100 nmol radiolabeled peptide
[5] = 24 hours after 100 nmol radiolabeled peptide
[6] = 0.08 hours after 100 nmol radiolabeled peptide
[7] = 0.5 hours after 100 nmol radiolabeled peptide
[8] = 1 hour after 100 nmol radiolabeled peptide
[9] = 8 hours after 100 nmol radiolabeled peptide
[10] = 48 hours after 100 nmol radiolabeled peptide

Sequence of pepsin (P0DJD8 63-388): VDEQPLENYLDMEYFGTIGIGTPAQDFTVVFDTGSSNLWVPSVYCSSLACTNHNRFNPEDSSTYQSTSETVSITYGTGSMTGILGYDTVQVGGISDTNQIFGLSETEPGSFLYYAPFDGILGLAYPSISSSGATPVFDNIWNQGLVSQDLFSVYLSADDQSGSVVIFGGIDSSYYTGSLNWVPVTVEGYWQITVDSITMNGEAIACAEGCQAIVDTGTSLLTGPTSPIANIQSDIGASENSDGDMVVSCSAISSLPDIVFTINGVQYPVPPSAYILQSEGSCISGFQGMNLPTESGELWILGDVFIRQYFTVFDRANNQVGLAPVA

GSGVPINVKCRGSRDCLDPCKKAGMRFGKCINSKCHCTP [SEQ ID NO: 24]
Signal in IVD as a percentage of the blood [1, 4]: 1779% | Signal in IVD as a percentage of the blood [1, 5]: 833% | Resistance to degradation in DTT, SGF, SGF and pepsin, SPTD solutions (pepsin): highly resistant to degradation | HPLC peaks under non-reducing versus reducing conditions (resistance to reduction by DTT) [2]: Peaks showing the peptide under non-reducing conditions and reducing conditions are overlapping | Detection of radioactive signal from the dosed peptide in plasma ([3]; IV 20 nmol / PO 100 nmol): at least 50 hours | Plasma concentration as percent of the dose ([3]; IV administration, 20 nmol): up to 10 % of the dose | Plasma concentration as percent of the dose ([3]; PO administration, 100 nmol): up to 1 % of the dose | Intact peptide in feces ([3]; oral dosing 100 nmol, 3 and 8 hours): detected in feces after oral dosing | Nature of radioactivity detected in plasma (HPLC / scintillation) ([3]; oral gavage 100 nmol, 0.5, 1, 3 hours): nearly some of all of the radioactivity detected in plasma was due to fragments of the administered peptide | Cartilage types reached (FIGS. 3-4) (cartilage): homing of SEQ ID NO: 24 to hyaline cartilage such as articular cartilage and physeal cartilage, as well as fibrocartilage

GSGVPINVRCRGSRDCLDPCRRAGMRFGRCINSRCHCTP [SEQ ID NO: 111]
Time at which the signal to background ratio in IVD peaked ([1]; 100 nmol): 24 h | Time at which the signal to background ratio in knee joints peaked ([1]; 100 nmol): 8 h | Presence of radiolabeled peptide in IVD and synovial joints ([1]; 100 nmol, 5 minutes-48 hours): observed in the intervertebral disc (IVD) and synovial joints at all time points (5 minutes-48 hours) | Signal in IVD as a percentage of the blood [1, 6]: 164% | Signal in knee joints as a percentage of the blood [1, 6]: 404% | Signal in IVD as a percentage of the blood [1, 7]: 369% | Signal in knee joints as a percentage of the blood [1, 7]: 510% | Signal in IVD as a percentage of the blood [1, 8]: 961% | Signal in knee joints as a percentage of the blood [1, 8]: 1114% | Signal in IVD as a percentage of the blood [1, 4]: 3213% | Signal in knee joints as a percentage of the blood [1, 4]: 4059% | Signal in IVD as a percentage of the blood [1, 9]: 3777% | Signal in knee joints as a percentage of the blood [1, 9]: 4990% | Signal in IVD as a percentage of the blood [1, 5]: 5391% | Signal in knee joints as a percentage of the blood [1, 5]: 2137% | Signal in IVD as a percentage of the blood [1, 10]: 3320% | Signal in knee joints as a percentage of the blood [1, 10]: 843% | Signal of folded knotted peptide compared to linearized peptide of SEQ ID NO: 434 ([1]; IVD, 3 hours): ~20 fold | Resistance to degradation in DTT, SGF, SGF and pepsin, SPTD solutions (pepsin): similarly highly resistant in the various conditions tested | HPLC peaks under non-reducing versus reducing conditions (resistance to reduction by DTT) [2]: Peaks showing the peptide under non-reducing conditions and reducing conditions are fully overlapping | Resistance to degradation (FIG. 72) (pepsin, trypsin): highly resistant to degradation at pH 1, reducing agents, trypsin, and pepsin

GSGVPINVRSRGSRDSLDPSRRAGMRGRSINSRSHSTP [SEQ ID NO: 434, reference compound]
Cartilage homing (qualitative, WBA) ([1]; 100 nmol radiolabeled peptide): homed to cartilage to a much lesser extent than the folded knotted peptide | Signal in IVD as a percentage of signal in blood ([1]; 3 hr Intact Kidneys, 100 nmol): 177% | Signal in IVD as a percentage of signal in blood ([1]; 3 hr Ligated Kidneys, 100 nmol): 117% | Signal in IVD as a percentage of signal in blood ([1]; 24 hr Intact Kidneys, 100 nmol): 104% | Resistance to degradation (FIG. 72) (pepsin, trypsin): more susceptible to degradation at these different conditions
